How the values were obtained:
HCT116 cells = assay: Cellular protein by BCA assay after compound exposure (ELISA plates); format: cell-based, human; conditions: for Cellular Protein (% DMSO controls): HCT116, 10 μM compound
Procedure: Incubate at 37° for 30 min. • (6) Wash plates twice in PBS using an automated washer (Wellwash 5000 ten plate stacker-washer or Wellwash Ascent single plate washer, Thermo Labsystems, Basingstoke, UK). • (7) Block the plates by addition of blocking solution (100 μl) and incubate for 30 min. • (8) Add 100 μl primary antibody diluted to 0.95 μg/ml in PBS to each well and incubate plate for 1.5 h. Wash plates once with DELFIA® wash solution. • (9) Add 100 μl Europium labelled anti-mouse IgG diluted in DELFIA® assay buffer to 75 ng/ml and incubate for 1 hour. Wash plates once with DELFIA® wash solution as before. • (10) Add 100 μl DELFIA® enhancement solution to each well. • (11) Measure the fluorescence (615 nm) in Victor 2 1420 multilabel counter (Perkin Elmer Life Sciences, Milton Keynes, UK) using time-resolved measurement mode. • (12) Wash plates once with PBS and measure protein concentration by the addition of 200 μl BCA reagent to each well, shake for 1–2 min and incubate for 30 mins at 37° C. Read absorption at 570 nm. • (13) Express ELISA results by normalising to protein in the well (Eu counts (cpm) divided by OD@ 570 nm). Compare the effect of HSP90 inhibitors on HSP70 expression with DMSO treated controls. Comments • (1) Cells plated into 96 well plates are incubated in a plastic box to reduce evaporation from the outside wells. In addition, ELISA incubation steps are carried out in a 37° C. laboratory incubator and in a moist environment e.g., plastic box lined with damp tissue paper. • (2) All additions to the microtitre plate can be achieved using a multichannel pipette or for larger numbers of plates an automated dispenser such as a Multidrop (Thermo Labsytems, Basingstoke, UK). • (3) For convenience, if the effects of compounds are being studied at several time points the ELISA can be carried out in batches, plates being stored (in a container) at 4° C. following the fixation step. In this case the plates are washed only once following fixation and again immediately before the first ELISA step (step 6 above). In addition all the plates can be stored for subsequent protein estimation. • (4) Reproducibility of both the measured Europium counts and the protein measurements was between 10–15% (CV). • (5) DELFIA® reagents (see, e.g., Hemmila and Webb, 1997) have been routinely used in cell-based ELISAs. This endpoint provides high sensitivity and the time-resolved measurements reduce interference from non-specific fluorescence. However, it is also possible to use a horse radish peroxidase second antibody conjugate and either a calorimetric (e.g., tetramethylbenzidine) or chemiluminescent reagent (e.g., ECL reagent (Amersham Pharmacia Biotech, Little Chalfont, Bucks, UK) for endpoint measurement. • (6) It is recommended that a blank consisting of second-antibody only (i.e., no first antibody) together with an appropriate first antibody control (e.g., isotype matched IgG) are included in assays during the process of optimising reagent concentrations. Growth Inhibition Assay
The effect of various compounds of the present invention on the expression of the molecular marker HSP70 was determined using the cell-based ELISA and a specific monoclonal antibody to HSP70 in HCT116 cells, as described above. Cellular protein following compound exposure was determined using BCA assay as described in the method.

[1] = test system: HSP70 and client protein (CDK4) expression in HT29 cells; assay: Western blotting of HSP70 and CDK4 in HT29 cells; format: cell-based, human; conditions: 24 hours, various concentrations
Procedure: The cellular effects of HSP90 inhibitors can be measured using a number of molecular markers. As already mentioned, HSP90 inhibition leads to the depletion of several important cellular signalling proteins. […] Depletion is normally observed by 6 h, with maximum depletion occurring at 24 h. As well as RAF-1, depletion of several other HSP90 client proteins can be measured by immunoblotting e.g., CDK4, ERBB2. However, it is important to note that some of these proteins are cell line specific e.g., ERBB2 is expressed mainly in breast, thyroid, kidney and some ovarian tumour cell lines. Another very important marker of HSP90 inhibition is heat shock protein 70 (HSP70). A HSF-1 (heatshock factor 1) dependent increase in HSP70 levels has been reported by us and other groups (see, e.g., Whitesell et al., 1994; Clarke et al., 2000) and this effect can serve as a positive indicator of HSP90 inhibitor action. The immunoblotting method described is based on standard techniques but is described in detail for ease of reference.
Prepare as required and store at −20° C. • (4) Bicinchoninic acid (BCA) protein assay reagents (PerBio Science UK, Ltd., Chester, UK). • (5) Casein blocking buffer (0.5% casein, 0.02% thimerosal, in PBS). Store at 4° C. for up to 2 weeks. • (6) Wash buffer (phosphate buffered saline, PBS) containing 0.05% Tween 20). • (7) Tris-glycine gradient polyacrylamide precast gels (4–20%) (1 mm thick) (Novex, InVitrogen, Groningen, NL). • (8) Nitro-cellulose membrane (0.2 μm pore size) (InVitrogen, Groningen, NL). • (9) Ponceau Red stain (2% w/v in 30% TCA/30% […], Sigma Aldrich Ltd., Pool, UK). • (10) Enhanced chemiluminescence (SuperSignal) reagents (PerBio Science UK, Ltd., Chester, UK). • (11) Photographic film (Hyperfilm ECL, Amersham Pharmacia Biotech, Little Chalfont, Bucks, UK). Method
The following protocol was used: • (1) Lyse cells (approx 4×10^6) in 100 μl lysis buffer for 30 minutes on ice. When adding the lysis buffer, shear cells by pipetting up and down using a Gilson P200 pipette. • (2) Spin lysates for 10 min at 13,000 rpm at 4° C., retrieve supernatant and store at −70° C. • (3) Determine protein concentration using BCA protein assay reagents. • (4) Load samples of cell lysates (50 μg protein/lane) onto gel and separate proteins by SDS-polyacrylamide gel electrophoresis (SDS-PAGE) using a 4–20% Tris-glycine gel. • (5) Transfer proteins to nitrocellulose membrane using optimum conditions for the equipment available. For example, 150 mA for 2 h using the Mighty Small transfer system (Hoeffer TE22 Mini Tank Transphor Unit, Amersham Pharmacia Biotech, Little Chalfont, Bucks, UK). […]
Comments • (1) The protein bands are normally evaluated visually. […]

SMILES | Cellular Protein (% DMSO controls) (HCT116 cells; (48 h)) | Cellular Protein (% DMSO controls) (HCT116 cells; (time not given)) | CDK4 client protein expression (immunoblot) [1] | HSP70 expression (immunoblot) [1] | cellular protein measured by BCA, reduction of DMSO controls (HCT116 cells; HCT116, 10 μM)
Cc1[nH]nc(-c2ccc(O)cc2O)c1-c1ccc2c(c1)OCCO2 [CCT018157] | 91.3% | 21.2% | – | – | –
CCc1cc(-c2n[nH]c(C)c2-c2ccc3c(c2)OCCO3)c(O)cc1O [CCT018159, 4-[4-(2,3-Dihydro-benzo[1,4]dioxin-6-yl)-5-methyl-1H-pyrazol-3-yl]-6-ethyl-benzene-1,3-diol] | 50.0% | 20.8% | depleted | elevated HSP70 expression | 50–80%

Source: patent US7247734B2 (Vernalis (Cambridge) Limited, priority 2001, dated 2007)
